ChEMBL document CHEMBL1159225, “Oceanapamine, a sesquiterpene alkaloid from the Philippine sponge Oceanapia sp” (J Nat Prod, 1995)
Activity calls are given as the source filed them. The calls are words filed in the database; no cut-off is given here.

What was measured:
Format in all cases: functional, organism-based
[1] = test system: Staphylococcus aureus; test: Antimicrobial activity against Staphylococcus aureus at 50 ug/disk by standard disk assay
[2] = test system: Candida albicans; test: Antifungal activity against Candida albicans at 50 ug/disk by standard disk assay
[3] = test system: Bacillus subtilis; test: Antimicrobial activity against Bacillus subtilis at 25 ug/disk by standard disk assay
[4] = test system: Pseudomonas aeruginosa; test: Antimicrobial activity against Pseudomonas aeruginosa at 100 ug/disk by standard disk assay
[5] = test system: Escherichia coli; test: Antimicrobial activity against Escherichia coli at 25 ug/disk by standard disk assay

SMILES: C=C1CCCC(C)(C)[C@H]1CC/C(C)=C/Cc1ncn2c1CCNC2=O
- Activity [1]: inactive
- Activity [2]: inactive
- Activity [3]: inactive
- Activity [4]: inactive
- Activity [5]: inactive

SMILES: C=C1CCCC(C)(C)[C@H]1CC/C(C)=C/Cc1nc[nH]c1CCN
- Activity [1]: Active
- Activity [2]: Active
- Activity [3]: Active
- Activity [4]: Active
- Activity [5]: Active
